The values that follow come from the Kinase Knowledgebase extract (Sharma et al. 2016).

As a reminder, the IC50 is the concentration needed to halve the response being measured. A high value points to a need for much substance.

The target in this test is EGFR (human) (UniProt P00533).
EGFR (human), sequence (P00533 whole entry, looked up): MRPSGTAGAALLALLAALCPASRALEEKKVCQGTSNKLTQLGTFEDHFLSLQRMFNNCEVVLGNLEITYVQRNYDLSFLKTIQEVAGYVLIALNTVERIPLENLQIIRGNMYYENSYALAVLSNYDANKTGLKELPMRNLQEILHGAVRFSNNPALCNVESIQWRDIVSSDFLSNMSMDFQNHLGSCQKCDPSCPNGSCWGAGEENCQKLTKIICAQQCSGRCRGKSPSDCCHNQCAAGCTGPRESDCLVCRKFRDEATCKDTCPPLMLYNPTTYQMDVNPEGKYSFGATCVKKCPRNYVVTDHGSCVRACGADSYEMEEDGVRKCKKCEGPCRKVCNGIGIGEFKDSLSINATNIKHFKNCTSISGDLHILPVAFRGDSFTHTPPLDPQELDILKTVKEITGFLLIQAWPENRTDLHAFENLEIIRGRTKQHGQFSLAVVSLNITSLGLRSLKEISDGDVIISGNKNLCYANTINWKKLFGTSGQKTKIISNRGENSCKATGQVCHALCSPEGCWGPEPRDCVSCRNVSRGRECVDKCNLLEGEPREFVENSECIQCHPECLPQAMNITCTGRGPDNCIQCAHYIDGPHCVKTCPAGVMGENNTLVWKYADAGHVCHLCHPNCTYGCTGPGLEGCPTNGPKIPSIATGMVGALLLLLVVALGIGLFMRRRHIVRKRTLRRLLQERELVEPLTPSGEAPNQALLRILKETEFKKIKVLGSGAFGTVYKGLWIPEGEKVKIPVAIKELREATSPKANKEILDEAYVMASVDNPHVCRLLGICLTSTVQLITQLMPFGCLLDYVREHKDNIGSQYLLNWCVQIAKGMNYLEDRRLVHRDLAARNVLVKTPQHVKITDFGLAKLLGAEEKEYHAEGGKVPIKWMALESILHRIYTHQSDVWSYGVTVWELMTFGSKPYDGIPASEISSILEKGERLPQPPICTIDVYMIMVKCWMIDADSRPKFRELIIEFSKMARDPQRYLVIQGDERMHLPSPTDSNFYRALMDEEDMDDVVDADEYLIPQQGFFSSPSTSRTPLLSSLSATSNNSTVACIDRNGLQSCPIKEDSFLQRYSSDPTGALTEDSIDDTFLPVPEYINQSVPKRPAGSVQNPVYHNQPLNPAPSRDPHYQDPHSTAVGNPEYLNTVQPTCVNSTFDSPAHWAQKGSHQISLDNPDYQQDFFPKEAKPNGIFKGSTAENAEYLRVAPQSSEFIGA
In turn, `COc1cc(N2CCN(CCS(C)(=O)=O)CC2)c(C)cc1Nc1nccc(-c2sc(C)nc2-c2cccc(NS(=O)(=O)c3c(F)cccc3F)c2)n1` registered an IC50 of under 100 nM. Turning to `COc1cc(N2CCC(N3CCN(CCS(C)(=O)=O)CC3)CC2)ccc1Nc1nccc(-c2sc(C(C)C)nc2-c2cccc(NS(=O)(=O)c3c(F)cccc3F)c2)n1`, the IC50 was under 100 nM.

`O=S(=O)(Nc1cccc(-c2ncsc2-c2ccnc(Nc3ccc(N4CCOCC4)nc3)n2)c1)c1c(F)cccc1F`: the IC50 was 100 to 1000 nM. With `COc1cc(N2CCN(CCS(C)(=O)=O)CC2)c(C)cc1Nc1nccc(-c2sc(C3CCOCC3)nc2-c2cccc(NS(=O)(=O)c3c(F)cccc3F)c2F)n1` the figure was under 100 nM. With `CC(=O)N1CCN(c2ccc(Nc3nccc(-c4sc(C(C)C)nc4-c4cccc(NS(=O)(=O)C5CCCCC5)c4)n3)cn2)CC1` the figure was 100 to 1000 nM. Under `Nc1nc(-c2ccc(F)c(NS(=O)(=O)c3c(F)cccc3F)c2)c(-c2ccnc(Nc3ccc(N4CCOCC4)nc3)n2)s1` stands 100 to 1000 nM; under `CC(C)c1nc(-c2ccc(F)c(NS(=O)(=O)c3c(F)cccc3F)c2)c(-c2ccnc(Nc3ccc(N4CCOCC4)nc3)n2)s1`, 100 to 1000 nM. For `CC(C)c1nc(-c2cccc(NS(=O)(=O)c3c(F)cccc3F)c2)c(-c2ccnc(Nc3ccc(N4CCOCC4)nc3)n2)s1`, the 50% inhibitory concentration (IC50) is 100 to 1000 nM. With `CC(C)c1nc(-c2ccc(F)c(NS(=O)(=O)c3c(F)cccc3F)c2)c(-c2ccnc(Nc3ccc(N4CCN(CCF)CC4)c(F)c3)n2)s1` the figure was 100 to 1000 nM; with `COc1cc(OC2CCN(CCS(C)(=O)=O)CC2)c(C)cc1Nc1nccc(-c2sc(C(C)C)nc2-c2cccc(NS(=O)(=O)c3c(F)cccc3F)c2)n1`, under 100 nM.

For `O=S(=O)(Nc1cc(-c2nc(N3CCOCC3)sc2-c2ccnc(Nc3ccc(N4CCOCC4)nc3)n2)ccc1F)c1c(F)cccc1F`, the IC50 lay in the range of 100 to 1000 nM. The compound `CC(C)c1nc(-c2cccc(NS(=O)(=O)c3c(F)cccc3F)c2)c(-c2ccnc(Nc3cccc(N4CCN(C)CC4)c3)n2)s1` returned an IC50 of under 100 nM. In the case of `COc1cc(N2CCN(CCS(C)(=O)=O)CC2)c(C)cc1Nc1nccc(-c2sc(N)nc2-c2cccc(NS(=O)(=O)c3c(F)cccc3F)c2)n1`, the IC50 lay in the range of 100 to 1000 nM. Under `CC(=O)N1CCN(c2ccc(Nc3nccc(-c4sc(C(C)C)nc4-c4cccc(NS(=O)(=O)c5ccccc5F)c4)n3)cn2)CC1` stands under 100 nM; under `CC(=O)N1CCN(c2ccc(Nc3nccc(-c4sc(C(C)C)nc4-c4cccc(NS(=O)(=O)c5cc(F)ccc5F)c4)n3)cn2)CC1`, 100 to 1000 nM. Under `CC(C)c1nc(-c2cccc(NS(=O)(=O)c3c(F)cccc3F)c2)c(-c2ccnc(Nc3ccc(OC4CCN(CCS(C)(=O)=O)CC4)c(F)c3)n2)s1` stands 100 to 1000 nM; under `O=S1(=O)Cc2ccc(Nc3nccc(-c4sc(N5CCOCC5)nc4-c4cccc(NS(=O)(=O)c5c(F)cccc5F)c4F)n3)cc2C1`, 100 to 1000 nM.

`CN1CCC(c2nc(-c3ccc(F)c(NS(=O)(=O)c4c(F)cccc4F)c3)c(-c3ccnc(Nc4ccc(N5CCOCC5)nc4)n3)s2)CC1` yielded an IC50 of 100 to 1000 nM.

In turn, `CCNc1nc(-c2cccc(NS(=O)(=O)c3c(F)cccc3F)c2)c(-c2ccnc(Nc3ccc(N4CCOCC4)nc3)n2)s1` came in with an IC50 of 100 to 1000 nM.

Turning to `CCc1nc(-c2cccc(NS(=O)(=O)c3ccccc3)c2)c(-c2ccnc(Nc3ccc(OC)c(N4CCN(CCS(C)(=O)=O)CC4)c3)n2)s1`, the IC50 lay in the range of 100 to 1000 nM. Under `COc1cc(N2CCN(CCS(C)(=O)=O)CC2)c(C)cc1Nc1nccc(-c2sc(C(C)C)nc2-c2cccc(NS(=O)(=O)c3ccco3)c2)n1` stands under 100 nM; under `CC(C)c1nc(-c2cccc(NS(=O)(=O)c3c(F)cccc3F)c2)c(-c2ccnc(Nc3ccc(N4CCCN(CCS(C)(=O)=O)CC4)nc3)n2)s1`, 100 to 1000 nM; under `CCc1nc(-c2ccc(F)c(NS(=O)(=O)c3ccccc3)c2)c(-c2ccnc(Nc3ccc(N4CCN(C(C)C)CC4)cc3OC)n2)s1`, 100 to 1000 nM.

In turn, `CN(C)c1nc(-c2ccc(F)c(NS(=O)(=O)c3c(F)cccc3F)c2)c(-c2ccnc(Nc3ccc(N4CCN(S(C)(=O)=O)CC4)nc3)n2)s1` showed an IC50 of 100 to 1000 nM. Under `CCOc1ccc(Nc2nccc(-c3sc(C(C)C)nc3-c3ccc(F)c(NS(=O)(=O)c4c(F)cccc4F)c3)n2)cc1N1CCN(CCF)CC1` stands under 100 nM; under `CC(=O)N1CCc2cc(Nc3nccc(-c4sc(C(C)C)nc4-c4cccc(NS(=O)(=O)c5ccccc5)c4)n3)ccc21`, 100 to 1000 nM; under `CC(C)c1nc(-c2cccc(NS(=O)(=O)c3ccccc3)c2)c(-c2ccnc(Nc3ccc(F)c(N4CCN(CCS(C)(=O)=O)CC4)c3)n2)s1`, 100 to 1000 nM. Under `CC(C)c1nc(-c2cccc(NS(=O)(=O)c3c(F)cccc3F)c2)c(-c2ccnc(Nc3ccc(N4CCCNCC4)nc3)n2)s1` stands under 100 nM.
